The CheMixHub viscosity set

Assay: xn = mol fraction of the nth substance listed

CC(=O)N1CCOCC1 + CCCO
viscosity [mPa·s], 101 kPa
Details | 293.15 K | 303.15 K | 313.15 K | 323.15 K
x1 = 0.0542 | 3.211 | 2.607 | 2.089 | 1.678
x1 = 0.1279 | 4.268 | 3.591 | 2.958 | 2.472
x1 = 0.2156 | 5.382 | 4.614 | 3.842 | 3.268
x1 = 0.2811 | 6.079 | 5.246 | 4.369 | 3.728
x1 = 0.3166 | 6.397 | 5.529 | 4.598 | 3.925
x1 = 0.3902 | 6.922 | 5.978 | 4.928 | 4.183
x1 = 0.4533 | 7.294 | 6.294 | 5.142 | 4.331
x1 = 0.5022 | 7.478 | 6.414 | 5.189 | 4.331
x1 = 0.5437 | 7.679 | 6.578 | 5.289 | 4.388
x1 = 0.5983 | 7.857 | 6.703 | 5.329 | 4.375
x1 = 0.6341 | 7.889 | 6.699 | 5.267 | 4.277
x1 = 0.6883 | 8.018 | 6.776 | 5.259 | 4.214
x1 = 0.7442 | 8.069 | 6.769 | 5.161 | 4.062
x1 = 0.7912 | 8.099 | 6.748 | 5.069 | 3.922
x1 = 0.8542 | 8.178 | 6.766 | 4.986 | 3.776
x1 = 0.9165 | 8.328 | 6.851 | 4.972 | 3.702
x1 = 0.9776 | 8.508 | 7.001 | 5.093 | 3.823

CC(N)=O + CCO
303.15 K, 101 kPa
Details | viscosity [mPa·s]
x1 = 0.0327 | 9.42
x1 = 0.0646 | 10
x1 = 0.0901 | 10.16
x1 = 0.1011 | 12.61

CCCCCCCCCO + CN(C)C=O
Details | viscosity [mPa·s]
308.15 K, 101.3 kPa, x2 = 0.2201 | 2.965

Cc1cccc2ccccc12 + Cc1ccccc1
viscosity [mPa·s], 100 kPa
Details | x2 = 0.2784 | x2 = 0.6068 | x2 = 0.8224
298.15 K | 1.646 | 1.036 | 0.731
313.15 K | 1.285 | 0.841 | 0.608

O=C([O-])CC(O)(CC(=O)[O-])C(=O)[O-].[Li+].[Li+].[Li+] + O
viscosity [mPa·s], 101 kPa
Details | 298.15 K | 308.15 K | 318.15 K
x1 = 0.004 | 1.118 | 0.9013 | 0.7487
x1 = 0.007 | 1.39 | 1.112 | 0.9146
x1 = 0.01 | 1.784 | 1.415 | 1.155

O=[N+]([O-])c1ccccc1O + Nc1ccccc1
viscosity [mPa·s], 101 kPa
Details | x1 = 0.07555 | x1 = 0.1616 | x1 = 0.246 | x1 = 0.3265 | x1 = 0.4134 | x1 = 0.5065 | x1 = 0.5908 | x1 = 0.6928 | x1 = 0.7919 | x1 = 0.878
303.15 K | 2.972 | 2.863 | 2.805 | 2.802 | 2.828 | 2.881 | 2.952 | 3.068 | 3.225 | –
313.15 K | 2.322 | 2.257 | 2.224 | 2.215 | 2.23 | 2.272 | 2.328 | 2.415 | 2.515 | 2.61

CCCCCC[n+]1ccn(C)c1.O=[N+]([O-])[O-] + CCCCCCCO
Details | viscosity [mPa·s]
308.15 K, 100 kPa, x1 = 0.9381 | 206.5

CCCCCCCCCO + CCCCCCCO
viscosity [mPa·s], 101.8 kPa
Details | x2 = 0.1184 | x2 = 0.3815 | x2 = 0.5514 | x2 = 0.7089 | x2 = 0.9183
298.15 K | 9.014 | 7.935 | 7.47 | 6.84 | 6.013
308.15 K | 6.366 | 5.68 | 5.353 | 4.96 | 4.408
318.15 K | 4.618 | 4.157 | 3.932 | 3.662 | 3.286

C1CCCCCCCCCCC1 + Cc1ccccc1
303 K, 101 kPa
Details | viscosity [mPa·s]
x1 = 0.0186 | 0.5245
x2 = 0.8099 | 0.6724
x2 = 0.9012 | 0.5699
x2 = 0.9426 | 0.5336

BrC(Br)(Br)Br + c1ccccc1
298.15 K, 101 kPa
Details | viscosity [mPa·s]
x1 = 0.1 | 0.8303
x1 = 0.2 | 1.122
x1 = 0.3 | 1.464
x1 = 0.4 | 1.839
x1 = 0.5 | 2.235
x1 = 0.6 | 2.636
x1 = 0.7 | 3.026
x1 = 0.8 | 3.391
x1 = 0.9 | 3.716

CCCCCCCCCO + CCCCCCO
viscosity [mPa·s], 101.8 kPa
Details | x2 = 0.1351 | x2 = 0.4186 | x2 = 0.5817 | x2 = 0.7358 | x2 = 0.9282
298.15 K | 8.731 | 7.177 | 6.384 | 5.606 | 4.847
308.15 K | 6.206 | 5.187 | 4.651 | 4.127 | 3.596
318.15 K | 4.51 | 3.821 | 3.453 | 3.093 | 2.717

Cc1cccc2ccccc12 + CCCCCCC
viscosity [mPa·s], 100 kPa
Details | x2 = 0.125 | x2 = 0.25 | x2 = 0.375 | x2 = 0.5 | x2 = 0.625 | x2 = 0.75 | x2 = 0.875
303.15 K | 1.84 | 1.36 | 1.03 | 0.8 | 0.644 | 0.524 | 0.438
323.15 K | 1.3 | 1 | 0.781 | 0.625 | 0.512 | 0.424 | 0.357

O=[N+]([O-])c1ccccc1O + c1ccncc1
viscosity [mPa·s], 101 kPa
Details | x1 = 0.06767 | x1 = 0.1295 | x1 = 0.178 | x1 = 0.2717 | x1 = 0.3836 | x1 = 0.4628 | x1 = 0.5508 | x1 = 0.6529 | x1 = 0.7913 | x1 = 0.8557
303.15 K | 0.943 | 1.081 | 1.211 | 1.5 | 1.881 | 2.15 | 2.45 | 2.755 | 3.145 | 3.331
313.15 K | 0.815 | 0.93 | 1.03 | 1.245 | 1.51 | 1.711 | 1.912 | 2.145 | 2.411 | 2.525

CC(=O)OCCC1CCCCC1 + CCCCCCCCCCO
viscosity [mPa·s], 101 kPa
Details | 300 K | 310 K | 320 K
x2 = 0.1066 | 2.65 | 2.14 | 1.77
x2 = 0.1534 | 2.74 | 2.2 | 1.82
x2 = 0.2863 | 2.94 | 2.34 | 1.91
x2 = 0.337 | 3.14 | 2.46 | 2.01
x2 = 0.4105 | 3.47 | 2.72 | 2.15
x2 = 0.4983 | 3.91 | 3.02 | 2.41
x2 = 0.5476 | 4.25 | 3.26 | 2.56
x2 = 0.6306 | 4.92 | 3.76 | 2.93
x2 = 0.702 | 5.57 | 4.15 | 3.18
x2 = 0.7382 | 5.93 | 4.4 | 3.37
x2 = 0.8402 | 7.22 | 5.25 | 3.94
x2 = 0.9332 | 8.92 | 6.35 | 4.67

CC(=O)N1CCOCC1 + CC(C)O
viscosity [mPa·s], 101 kPa
Details | 293.15 K | 303.15 K | 313.15 K | 323.15 K
x1 = 0.0522 | 3.709 | 2.981 | 2.398 | 2.058
x1 = 0.1274 | 4.822 | 4.027 | 3.33 | 2.819
x1 = 0.2153 | 6.051 | 5.18 | 4.35 | 3.754
x1 = 0.2813 | 6.792 | 5.862 | 4.934 | 4.274
x1 = 0.3169 | 7.055 | 6.069 | 5.112 | 4.418
x1 = 0.3909 | 7.575 | 6.548 | 5.454 | 4.686
x1 = 0.4569 | 7.956 | 6.872 | 5.68 | 4.85
x1 = 0.4999 | 8.044 | 6.922 | 5.666 | 4.794
x1 = 0.5444 | 8.301 | 7.14 | 5.816 | 4.903
x1 = 0.6113 | 8.421 | 7.202 | 5.778 | 4.799
x1 = 0.6342 | 8.356 | 7.116 | 5.656 | 4.656
x1 = 0.6888 | 8.479 | 7.191 | 5.651 | 4.597
x1 = 0.7522 | 8.573 | 7.229 | 5.593 | 4.478
x1 = 0.7976 | 8.575 | 7.191 | 5.487 | 4.328
x1 = 0.8555 | 8.612 | 7.176 | 5.389 | 4.174
x1 = 0.9231 | 8.559 | 7.065 | 5.172 | 3.892
x2 = 0.0188 | 8.649 | 7.104 | 5.163 | 3.893

CC(=O)N(C)C + CC(C)O
303.15 K, 101 kPa
Details | viscosity [mPa·s]
x1 = 0.1016 | 1.428
x1 = 0.2027 | 1.222
x1 = 0.3046 | 1.1
x1 = 0.5032 | 0.994
x1 = 0.6012 | 0.945
x1 = 0.7055 | 0.939
x1 = 0.906 | 0.884
